This is an account of results in patent US8592344B2, “Pesticidal compositions comprising 4,5-dihydroxyindan-1-one” (Yissum Research Development Company of The Hebrew …, priority 2009, dated 2013).

For assay [1], the system named is citrus rust mite, Phyllocoptruta oleivora. As to the kind of experiment: whole plant or invertebrate. Format: in vivo. The conditions noted are these: recorded 24 h later. How it is done: The CRM population was obtained from Mineola Tangelo (C. paradisi×C. reticulata) fruits at the Tzrifin farm, on the coastal plain of Israel. No acaricides are being used at this farm, making the location a suitable place for our purposes. In the laboratory the pest was reared on young seedlings (6-8 weeks old) of sour orange (Citrus aurantium).
In order to determine the CRM dose response to the toxin, 0.01, 0.02, 0.05, 0.1, 0.2 and 0.4 mg/ml of RPLC-cleaned toxin, dissolved in a two ml volume of ddH2O, was sprayed on the CRM (thirty CRMs/leaf, in four replicates). The infested seedlings were incubated at 25° C., (12L: 12D). Mite mortality rates were recorded 24 h later.

The subject of assay [2] is Agrobacterium tumefaciens (strain ID1). As to the kind of experiment: Antibacterial activity, inhibition haloes of chromatographed fractions. Format: cell-based. The conditions noted are these: RPLC fraction in 10 μl methanol, 24 hours, 28° C. On the procedure:
The bacterium was grown overnight in glass tubes containing a 5 ml Lennox Broth (LB, Difco). Fifty μl overnight-grown bacterial suspensions were added to 5 ml of LB containing 0.6% agar, and placed into Petri dishes (55 mm diameter). Each of the eluted chromatographed fractions was dried using a rotor evaporator, dissolved in 10 μl of methanol, pipetted into the Petri dishes and incubated at 28° C. Each dish was checked for inhibition haloes 24 hours later; 10 μl methanol alone was used as a control. This procedure was repeated four times to confirm of the toxicity of the fractions. The RPLC-cleaned fraction that was antagonistic to A. tumefaciens was concurrently assayed against the citrus rust mite (describe below).

Structures are written as SMILES.

By mortality is commonly meant the share of the test organisms that died. A high value points to fewer survivors. In assay [1] (0.01 mg/ml sprayed, control 6%), `O=C1CCc2c1ccc(O)c2O` [argovin, 4,5-dihydroxyindan-1-one] returned a mortality at 10 µg/mL of 39%. The compound further registered a mortality at 200 µg/mL in assay [1] (0.2 mg/ml sprayed) of 100%. In addition, the “activity against A. tumefaciens (inhibition halo)” value in assay [2] is recorded as “active”.
